This assay deals with MAPK14 (human) (UniProt Q16539). The experiment in a line: Inhibition of MAPK14 by Human Whole Blood Assay. Conditions: blood cells.
Sequence of MAPK14 (human) (Q16539 whole entry, looked up): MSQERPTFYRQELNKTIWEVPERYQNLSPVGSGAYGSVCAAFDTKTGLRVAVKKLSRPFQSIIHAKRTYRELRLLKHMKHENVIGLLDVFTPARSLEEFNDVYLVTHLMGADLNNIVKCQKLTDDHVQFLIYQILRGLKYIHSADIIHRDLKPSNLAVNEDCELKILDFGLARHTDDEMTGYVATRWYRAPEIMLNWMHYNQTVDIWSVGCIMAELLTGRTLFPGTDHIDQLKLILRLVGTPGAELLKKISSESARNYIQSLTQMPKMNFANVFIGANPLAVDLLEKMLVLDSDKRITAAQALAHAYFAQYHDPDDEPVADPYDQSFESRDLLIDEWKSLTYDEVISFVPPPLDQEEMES
For `O=C(c1ccc2ccccc2c1)N(Cc1ccc(F)cc1)c1ccnc(N[C@H]2CCCc3ccccc32)c1`, the IC50 was at most 1 µM.
The value for `CCN(C(=O)c1ccc2ccccc2c1)c1ccnc(NC2CCC(N)CC2)n1` (configuration not stated) was below 1 µM; that for `C[C@H](Nc1nccc(N(CC2CCNC2)C(=O)c2ccc3c(c2)CCO3)n1)c1ccccc1` (some centres not stated) was below 1 µM; that for `CCN(C(=O)c1cccc(C(Cl)Cl)c1)c1ccnc(N[C@@H](C)c2ccccc2)n1` was below 1 µM.
The value for `CCN(C(=O)c1cccc(C)c1)c1ccnc(N[C@@H](C)c2ccccc2)n1` was below 1 µM; that for `C[C@H](Nc1nccc(N(CC2CCNCC2)C(=O)c2ccc3c(c2)CCCC3)n1)c1ccccc1` was below 1 µM; that for `CC(C)(C)CNc1nccc(N(CC2CCNCC2)C(=O)c2ccc3c(c2)CCO3)n1` was below 1 µM.
The molecule `O=C(c1ccc2c(c1)CCO2)N(CC1CCNCC1)c1ccnc(NC2CCC[C@@H]2O)n1` (some centres not stated) yielded an IC50 below 1 µM.
Next, `CCN(C(=O)c1ccc2ccccc2c1)c1ccnc(NC2CCNCC2)n1`: at most 1 µM; `CCN(C(=O)c1ccc2nccnc2c1)c1ccnc(N[C@@H](C)c2ccccc2)n1`: at most 1 µM.
Next, `CC(=O)N(Cc1ccc(F)cc1)c1ccnc(N[C@@H](C)c2ccccc2)c1`: at most 1 µM; `CCN(C(=O)c1ccc2occc2c1)c1ccnc(N[C@@H](C)c2ccccc2)n1`: below 1 µM; `CC(C)Nc1nccc(N(CCC[C@@H](N)C(=O)N(C)C)C(=O)c2ccc3c(c2)CCO3)n1`: below 1 µM.
Consider `O=C(c1ccc2ccccc2c1)N(CC1CC1)c1ccnc(NC2CCC(O)CC2)n1` (configuration not stated), for which the IC50 was below 1 µM.
Next, `CCN(C(=O)c1ccc2c(c1)CCC2)c1ccnc(N[C@@H](C)c2ccccc2)n1`: below 1 µM.
The molecule `C[C@H](Nc1nccc(N(CC2CCNCC2)C(=O)c2ccc3c(c2)CCC3)n1)c1ccccc1` registered an IC50 below 1 µM.
Next, `C[C@H](Nc1cc(N(Cc2ccc(F)cc2)S(=O)(=O)c2ccc3ccccc3c2)ccn1)c1ccccc1`: at most 1 µM; `COCCCNc1nccc(N(CC2CCNCC2)C(=O)c2ccc3c(c2)CCO3)n1`: below 1 µM; `C[C@H](Nc1nccc(N(CCCCN)C(=O)c2ccc3c(c2)CCO3)n1)c1ccccc1`: below 1 µM.
The value for `O=C(c1ccc2ccccc2c1)N(Cc1ccc(F)cc1)c1ccnc(NC2CCCCC2)c1` was at most 1 µM.
The value for `NCCCCN(C(=O)c1ccc2c(c1)CCO2)c1ccnc(NC2CCC(O)CC2)n1` (configuration not stated) was below 1 µM.
For `CCN(C(=O)c1ccc2snnc2c1)c1ccnc(N[C@@H](C)c2ccccc2)n1`, the IC50 was at most 1 µM.
Next, `COCCN(C(=O)c1ccc2ccccc2c1)c1ccnc(NC(C)C)n1`: at most 1 µM.
The value for `CCN(C(=O)c1scc2c1CCCC2)c1ccnc(N[C@@H](C)c2ccccc2)n1` was below 1 µM; that for `C[C@H](Nc1nccc(N(CC2CCN(C(N)=O)CC2)C(=O)c2ccc3c(c2)CCO3)n1)c1ccccc1` was below 1 µM.
`COC(=O)c1ccc(CNc2cc(N(Cc3ccc(F)cc3)C(=O)c3ccc4ccccc4c3)ccn2)cc1` came in with an IC50 of at most 1 µM.
The value for `C[C@H](Nc1cc(N(C)C(=O)N2CCc3ccccc3C2)ccn1)c1ccccc1` was at most 1 µM; that for `C[C@H](Nc1nccc(N(C(=O)c2ccc3ccccc3c2)C2CCN(C(=O)OC(C)(C)C)CC2)n1)c1ccccc1` was below 1 µM.
The value for `CC(C)N(C(=O)c1ccc2ccccc2c1)c1ccnc(N[C@@H](C)c2ccccc2)n1` was at most 1 µM.
For the molecule `C[C@H](Nc1nccc(N(CC2CCNCC2)C(=O)c2cccc3ccccc23)n1)c1ccccc1`, the IC50 is below 1 µM.
Next, `CC(C)Nc1nccc(N(CC2CC2)C(=O)c2ccc3ccccc3c2)n1`: below 1 µM.
Next, `O=C(c1ccc2c(c1)CCO2)N(CC1CCNCC1)c1ccnc(NC2CCCC2)n1`: below 1 µM; `C[C@H](Nc1cc(N(Cc2ccc(F)cc2)C(=O)c2cccs2)ccn1)c1ccccc1`: at most 1 µM.
The value for `CCN(C(=O)c1cccc2c1OCCO2)c1ccnc(N[C@@H](C)c2ccccc2)n1` was below 1 µM; that for `CC(C)Nc1nccc(N(C)C(=O)c2ccc3ccccc3c2)n1` was at most 1 µM; that for `O=C(c1ccc2ccccc2c1)N(Cc1ccc(F)cc1)c1ccnc(NC2CCN(Cc3ccccc3)CC2)c1` was at most 1 µM.
As for `O=C(c1ccc2c(c1)CCO2)N(CC1CCNCC1)c1ccnc(NC2CC2)n1`, the IC50 is below 1 µM.
For the molecule `Nc1cc(N(Cc2ccc(F)cc2)C(=O)c2ccc3ccccc3c2)ccn1`, the IC50 is at most 1 µM.
As to `CC(C)Nc1cc(N(Cc2ccc(F)cc2)C(=O)c2ccc3ccccc3c2)ccn1`, the IC50 was at most 1 µM.
The value for `C[C@H](Nc1nccc(N(Cc2ccc(S(C)(=O)=O)cc2)C(=O)c2ccc3ccccc3c2)n1)c1ccccc1` was at most 1 µM.
Next, `O=C(c1ccc2c(c1)CCC2)N(CC1CC1)c1ccnc(NC2CCC(O)CC2)n1` (configuration not stated): below 1 µM.
Next, `COCCN(C(=O)c1ccc2c(c1)CCC2)c1ccnc(N[C@@H](C)c2ccccc2)n1`: below 1 µM; `CCCN(C(=O)c1ccc2ccccc2c1)c1ccnc(N[C@@H](C)c2ccccc2)n1`: at most 1 µM.
`CCN(C(=O)c1cccc2c1OCC2)c1ccnc(N[C@@H](C)c2ccccc2)n1`: the IC50 was below 1 µM.
Next, `COCCN(C(=O)c1ccc2ccccc2c1)c1ccnc(N[C@@H](C)c2ccccc2)n1`: at most 1 µM; `C[C@H](Nc1cc(N(Cc2ccc(F)cc2)C(=O)c2ccc3ccccc3c2)ncn1)c1ccccc1`: at most 1 µM.
Regarding `O=C(c1ccc2ccccc2c1)N(Cc1ccc(F)cc1)c1ccnc(NCCN2CCOCC2)c1`, the IC50 is at most 1 µM.
Next, `CCN(C(=O)c1ccc2c(c1)CCO2)c1ccnc(N[C@@H](C)c2ccccc2)n1`: at most 1 µM; `CCN(C(=O)c1cc(C)ccc1F)c1ccnc(N[C@@H](C)c2ccccc2)n1`: below 1 µM; `C[C@H](Nc1nccc(N(Cc2cccnc2)C(=O)c2ccc3ccccc3c2)n1)c1ccccc1`: at most 1 µM.
Next, `COC(=O)CN1CCC(CN(C(=O)c2ccc3c(c2)CCO3)c2ccnc(NC(C)C)n2)CC1`: below 1 µM; `C[C@H](Nc1nccc(N(C(=O)c2ccc3ccccc3c2)C2CCNCC2)n1)c1ccccc1`: at most 1 µM; `C[C@H](Nc1nccc(N(CC2CCN(C3CCCC3)CC2)C(=O)c2ccc3c(c2)CCO3)n1)c1ccccc1`: below 1 µM.
In turn, `CCN(C(=O)c1cccc(Cl)c1)c1ccnc(N[C@@H](C)c2ccccc2)n1` had an IC50 below 1 µM.
As for `CC(C)Nc1nccc(N(CCCCN)C(=O)c2ccc3c(c2)CCO3)n1`, the IC50 is below 1 µM.
The value for `COc1ccc([C@H](C)Nc2cc(N(Cc3ccc(F)cc3)C(=O)c3ccc4ccccc4c3)ccn2)cc1` was at most 1 µM; that for `CC(C)Nc1nccc(N(CCCCN2CCCC2)C(=O)c2ccc3c(c2)CCO3)n1` was below 1 µM.
The value for `CNc1nccc(N(CC2CCNCC2)C(=O)c2ccc3ccccc3c2)n1` was below 1 µM.
The value for `C[C@H](Nc1cc(N(Cc2ccccc2)C(=O)c2ccc3ccccc3c2)ccn1)c1ccccc1` was at most 1 µM.
Molecule `CCN(C(=O)c1cccc(Cl)c1C)c1ccnc(N[C@@H](C)c2ccccc2)n1` registered a half-inhibitory concentration (IC50) below 1 µM.
Next, `CC1CCCCC1Nc1nccc(N(CC2CCNCC2)C(=O)c2ccc3c(c2)CCO3)n1` (configuration not stated): below 1 µM; `COCCNc1nccc(N(CC2CCNCC2)C(=O)c2ccc3c(c2)CCO3)n1`: below 1 µM.

Broadly, the IC50 is the concentration that inhibits the measured activity by half.

The record behind these values is the Kinase Knowledgebase extract (Sharma et al. 2016).
